# According to the supplement of paper PMC10307832:
# Experiments:
# Assay in all cases: relative viability (nuclei count vs DMSO), 5 days (fraction); higher = more cells survive
# [1] = compound: COc1cc2c(Oc3ccc(NC(=O)C4(C(=O)Nc5ccc(F)cc5)CC4)cc3F)ccnc2cc1OCCCN1CCOCC1 [Foretinib] (anchor plate); conditions: 0.25 µM
# Method in brief: (§1)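 Lung cancer cell lines in 1536-well plates were exposed by pinning to five library-drug doses (not always all listed) √10 apart, following an overnight hold at 37 °C. MetaXpress counted Hoechst-stained nuclei from 4× images taken after 5 days without medium change. Viability is the median ratio of treated-well to vehicle-well nuclei across plates. Plates required control CV below 25% and at least one doubling.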
# [2] = compound: O=S(=O)(c1ccccc1)N(CC(F)(F)F)c1ccc(C(O)(C(F)(F)F)C(F)(F)F)cc1
# Method in brief: as §1
# [3] = compound: C1=CC2=C(C=CC(=C2)C=C3C(=O)NC(=NCC4=CC=CS4)S3)N=C1 [RO-3306] + CC(=O)c1c(C)c2cnc(Nc3ccc(N4CCNCC4)cn3)nc2n(C2CCCC2)c1=O [Palbociclib] (partner 0.5 µM)
# Method in brief: (§2)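 For relative viability, nuclei counts in treated wells were divided by those in vehicle wells. Lung cancer cell lines had been pin-tool dosed in 1536-well plates the day after seeding and cultured for 5 days, then fixed and stained in one step (final 0.05% Triton X-100, 1% formaldehyde, 1 ug/ml Hoechst) and imaged at 4×. Doses were one drug alone or a fixed anchor-drug dose plus five library-drug doses (not always all listed) in √10 steps, and values are duplicate-plate medians.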
# [4] = compound: C1=CC2=C(C=CC(=C2)C=C3C(=O)NC(=NCC4=CC=CS4)S3)N=C1 [RO-3306] + Cc1nc(Nc2ncc(C(=O)Nc3c(C)cccc3Cl)s2)cc(N2CCN(CCO)CC2)n1 [Dasatinib] (partner 0.075 µM)
# Method in brief: as §2
# [5] = compound: O=S(=O)(c1ccccc1)N(CC(F)(F)F)c1ccc(C(O)(C(F)(F)F)C(F)(F)F)cc1 + CC1(C)CCC(c2ccc(Cl)cc2)=C(CN2CCN(c3ccc(C(=O)NS(=O)(=O)c4ccc(N[C@H](CCN5CCOCC5)CSc5ccccc5)c(S(=O)(=O)C(F)(F)F)c4)cc3)CC2)C1 [Navitoclax] (partner 0.5 µM)
# Method in brief: as §2
Cell Line,relative viability [1],relative viability ([2]; 0.8 µM),relative viability ([2]; 2.53 µM),relative viability ([2]; 8 µM),relative viability ([3]; first compound 0.01 µM),relative viability ([3]; first compound 0.03162 µM),relative viability ([3]; first compound 0.1 µM),relative viability ([3]; first compound 0.3162 µM),relative viability ([3]; first compound 1 µM),relative viability ([4]; first compound 0.01 µM),relative viability ([4]; first compound 0.03162 µM),relative viability ([4]; first compound 0.1 µM),relative viability ([4]; first compound 0.3162 µM),relative viability ([4]; first compound 1 µM),relative viability ([5]; first compound 0.8 µM),relative viability ([5]; first compound 2.53 µM),relative viability ([5]; first compound 8 µM)
H3255,0.881,0.913,0.808,0.84,0.299,0.373,0.294,0.305,0.321,0.358,0.381,0.353,0.327,0.329,0.537,0.64,0.503
ABC-1,1.07,0.758,0.843,1.03,0.869,0.406,0.66,0.799,0.458,0.644,0.614,0.483,0.458,0.531,,,
LXF-289,0.991,0.949,0.882,0.843,0.62,0.631,0.627,0.577,0.616,0.19,0.259,0.199,0.198,0.2,0.879,0.826,0.852
NCI-H1975,0.958,1.09,0.943,0.95,0.614,0.453,0.581,0.549,0.553,0.345,0.324,0.344,0.35,0.344,1.29,1.11,1.12
LCLC-97TM1,0.937,0.796,0.837,0.885,0.203,0.218,0.237,0.214,0.194,0.792,0.714,0.929,0.779,0.859,0.535,0.368,0.344
IA-LM,1.13,0.924,0.829,0.756,,,,,,,,,,,0.765,0.696,0.899
HCC-15,1.05,1.04,0.871,0.861,0.787,0.606,0.677,0.669,0.742,0.594,0.554,0.59,0.534,0.574,0.639,0.593,0.619
NCI-H1703,0.347,0.846,0.776,0.696,,,,,,,,,,,0.926,0.634,0.7
LCLC-103H,0.805,1.09,0.966,1.07,0.472,0.462,0.514,0.492,0.486,0.472,0.478,0.44,0.401,0.385,,,
NCI-H522,,1.06,0.954,1.15,1.2,0.965,1.01,1.02,1.04,0.895,0.854,0.82,0.823,0.846,,,
HCC-44,,0.98,0.988,0.97,1.01,0.932,0.993,0.96,0.952,,,,,,1.09,1.01,0.933
NCI-H1648,,0.793,0.58,0.518,0.277,,0.284,0.246,0.224,,,,,,,,
NCI-H596,0.881,0.952,0.942,0.908,,,,,,0.557,0.554,0.657,0.665,0.552,1.02,0.904,0.826
NCI-H650,1.02,0.946,0.814,0.989,0.32,0.325,0.332,0.328,0.293,0.429,0.421,0.393,0.479,0.421,,,
NCI-H661,0.971,1.04,0.982,0.971,0.421,0.45,0.394,0.386,0.383,0.834,0.769,0.828,0.814,0.799,,,
A549,0.951,1.07,0.914,0.886,,,,,,,,,,,1.34,1.12,0.97
NCI-H1792,,0.79,0.724,0.858,0.688,,0.653,0.708,0.698,1.03,,0.752,0.814,0.55,0.798,0.559,0.474
NCI-H1299,1.06,1.01,1.02,0.952,,,,,,,,,,,1.06,1,0.983
Calu-6,0.861,0.982,0.876,0.858,,,,,,,,,,,0.796,0.823,0.647
NCI-H1563,0.93,0.95,1.02,0.947,,,,,,0.413,0.526,0.415,0.48,0.451,,,
NCI-H358,0.694,0.815,0.796,0.826,0.163,0.106,0.126,0.116,0.112,0.145,0.155,0.169,0.133,0.191,,,
NCI-H2342,1.05,1.36,0.968,0.938,0.515,0.512,0.494,0.498,0.527,0.37,0.306,0.319,0.289,0.303,,,
SW 900,0.974,0.934,0.729,0.994,0.61,0.505,0.539,0.542,0.51,0.505,0.538,0.658,0.859,0.542,,,
EBC-1,0.108,0.934,0.769,0.721,,,,,,,,,,,0.447,0.402,0.356
